The values that follow come from PubChem BioAssay AID1259407 (Chemical Carcinogenesis Research Information System (CCRIS), 2018).

Calls of active or inactive are those of the source. The rule behind the calls is not given here.

The subject of the data set is CCRIS mutagenicity, Ames/micronucleus/aberration tests. Briefly: CCRIS mutagenicity studies.
The mark [1] stands for this setting: Test System: AMES SALMONELLA TYPHIMURIUM, Strain/Indicator: TA98, Metabolic Activation: NONE, Method: STANDARD PLATE.
[2] abbreviates: Test System: AMES SALMONELLA TYPHIMURIUM, Strain/Indicator: TA98, Metabolic Activation: RAT, LIVER, S-9, AROCLOR 1254, Method: STANDARD PLATE.
The mark [3] stands for this setting: Test System: AMES SALMONELLA TYPHIMURIUM, Strain/Indicator: TA100, Metabolic Activation: NONE, Method: STANDARD PLATE.
The mark [4] stands for this setting: Test System: AMES SALMONELLA TYPHIMURIUM, Strain/Indicator: TA100, Metabolic Activation: RAT, LIVER, S-9, AROCLOR 1254, Method: STANDARD PLATE.
Setting [5] is: Test System: AMES SALMONELLA TYPHIMURIUM, Strain/Indicator: TA100, Metabolic Activation: NONE, Method: PREINCUBATION
Setting [6] is: Test System: AMES SALMONELLA TYPHIMURIUM, Strain/Indicator: TA1535, Metabolic Activation: NONE, Method: STANDARD PLATE.
Where [7] appears, read: Test System: AMES SALMONELLA TYPHIMURIUM, Strain/Indicator: TA98, Metabolic Activation: NONE, Method: PREINCUBATION

Regarding `CN(C)CCCCl`, the mutagenic call is “inactive; negative” (Test System: AMES SALMONELLA TYPHIMURIUM, Strain/Indicator: TA98, Metabolic Activation: HAMSTER, LIVER, S-9, AROCLOR 1254, Method: STANDARD PLATE); “inactive; negative” under setting [1]; “inactive; negative” under setting [2]; “active; positive” (Test System: AMES SALMONELLA TYPHIMURIUM, Strain/Indicator: TA100, Metabolic Activation: HAMSTER, LIVER, S-9, AROCLOR 1254, Method: STANDARD PLATE); “active; positive” under setting [3]; “active; positive” under setting [4]. Further, the mutagenic call is “inactive; positive. reevaluation of results: negative” (Test System: MOUSE LYMPHOMA, Strain/Indicator: L5178Y (TK+/TK-), Metabolic Activation: NONE, Method: SUSPENSION/PLATE) and “active; positive. reevaluation of results: inconclusive” (Test System: MOUSE LYMPHOMA, Strain/Indicator: L5178Y (TK+/TK-), Metabolic Activation: RAT, LIVER, S-9, AROCLOR 1254, Method: SUSPENSION/PLATE).

As to `Cc1ccc(OC(=O)N(C)N=O)cc1C`, the mutagenic call (Test System: E. COLI WP2, Strain/Indicator: WP2, Metabolic Activation: NONE, Method: STANDARD PLATE) is “active; positive”.

Regarding `CC(C)(c1ccc(OP(O)O)cc1)c1ccc(OP(O)O)cc1`, the mutagenic call by setting is: (Test System: AMES SALMONELLA TYPHIMURIUM, Strain/Indicator: TA97, Metabolic Activation: NONE, Method: STANDARD PLATE) “inactive; negative”; (Test System: AMES SALMONELLA TYPHIMURIUM, Strain/Indicator: TA97, Metabolic Activation: S-9, Method: STANDARD PLATE) “inactive; negative”; under setting [1], “inactive; negative”; (Test System: AMES SALMONELLA TYPHIMURIUM, Strain/Indicator: TA98, Metabolic Activation: S-9, Method: STANDARD PLATE) “inactive; negative”; under setting [3], “inactive; negative”; (Test System: AMES SALMONELLA TYPHIMURIUM, Strain/Indicator: TA100, Metabolic Activation: S-9, Method: STANDARD PLATE) “inactive; negative”. Besides, the mutagenic call is, setting by setting: (Test System: AMES SALMONELLA TYPHIMURIUM, Strain/Indicator: TA102, Metabolic Activation: NONE, Method: STANDARD PLATE) “inactive; negative”; (Test System: AMES SALMONELLA TYPHIMURIUM, Strain/Indicator: TA102, Metabolic Activation: S-9, Method: STANDARD PLATE) “inactive; negative”; (Test System: E.COLI, Strain/Indicator: WP2 (PKM101), Metabolic Activation: NONE, Method: STANDARD PLATE) “inactive; negative”; (Test System: E.COLI, Strain/Indicator: WP2 (PKM101), Metabolic Activation: S-9, Method: STANDARD PLATE) “inactive; negative”.

Regarding `O=CN(O)c1ccc([N+](=O)[O-])cc1`, the mutagenic call runs as follows: (Test System: AMES SALMONELLA TYPHIMURIUM, Strain/Indicator: TA98(NR), Metabolic Activation: NONE, Method: STANDARD PLATE) “active; positive”; (Test System: AMES SALMONELLA TYPHIMURIUM, Strain/Indicator: TA98(NR), Metabolic Activation: RAT, LIVER, S-9, AROCLOR 1254, Method: STANDARD PLATE) “active; positive”; under setting [1], “active; positive”; under setting [2], “active; positive”; (Test System: AMES SALMONELLA TYPHIMURIUM, Strain/Indicator: TA1538(NR), Metabolic Activation: NONE, Method: STANDARD PLATE) “active; positive”; (Test System: AMES SALMONELLA TYPHIMURIUM, Strain/Indicator: TA1538(NR), Metabolic Activation: RAT, LIVER, S-9, AROCLOR 1254, Method: STANDARD PLATE) “active; positive”. Further, the mutagenic call runs as follows: (Test System: AMES SALMONELLA TYPHIMURIUM, Strain/Indicator: TA1538, Metabolic Activation: NONE, Method: STANDARD PLATE) “active; positive”; (Test System: AMES SALMONELLA TYPHIMURIUM, Strain/Indicator: TA1538, Metabolic Activation: RAT, LIVER, S-9, AROCLOR 1254, Method: STANDARD PLATE) “active; positive”.

As for `C=COc1ccc([N+](=O)[O-])cc1`, the mutagenic call (Test System: AMES SALMONELLA TYPHIMURIUM, Strain/Indicator: TA100(NR), Metabolic Activation: MOUSE, LIVER, S-13, Method: STANDARD PLATE) is “active; positive”; the mutagenic call (Test System: AMES SALMONELLA TYPHIMURIUM, Strain/Indicator: TA100(NR), Metabolic Activation: NONE, Method: PREINCUBATION) is “inactive; negative”; the mutagenic call (Test System: AMES SALMONELLA TYPHIMURIUM, Strain/Indicator: TA100(NR), Metabolic Activation: NONE, Method: STANDARD PLATE) is “inactive; negative”; the mutagenic call (Test System: AMES SALMONELLA TYPHIMURIUM, Strain/Indicator: TA100(NR), Metabolic Activation: RAT, LIVER, S-9, PCB, Method: PREINCUBATION) was “active; positive”; the mutagenic call (Test System: AMES SALMONELLA TYPHIMURIUM, Strain/Indicator: TA100, Metabolic Activation: MOUSE, LIVER, S-13, Method: STANDARD PLATE) is “active; positive”; the mutagenic call under setting [5] was “active; positive”. The mutagenic call runs as follows: under setting [3], “active; positive”; (Test System: AMES SALMONELLA TYPHIMURIUM, Strain/Indicator: TA100, Metabolic Activation: RAT, LIVER, S-9, PCB, Method: PREINCUBATION) “active; positive”; (Test System: AMES SALMONELLA TYPHIMURIUM, Strain/Indicator: TA1535, Metabolic Activation: MOUSE, LIVER, S-13, Method: STANDARD PLATE) “active; positive”; under setting [6], “inactive; negative”.

With `O=[N+]([O-])c1cccc2cc3ccccc3cc12`, the mutagenic call under setting [7] is “active; positive”; the mutagenic call (Test System: AMES SALMONELLA TYPHIMURIUM, Strain/Indicator: TA98, Metabolic Activation: RAT, LIVER, S-9, AROCLOR 1254 (10%), Method: PREINCUBATION) is “active; positive”; the mutagenic call under setting [5] was “active; positive”; the mutagenic call (Test System: AMES SALMONELLA TYPHIMURIUM, Strain/Indicator: TA100, Metabolic Activation: RAT, LIVER, S-9, AROCLOR 1254 (10%), Method: PREINCUBATION) was “active; positive”.

Take `O=[N+]([O-])c1ccc2c3c1ccc1cccc(c13)[C@@H]1O[C@H]21`: the mutagenic call was “active; positive” (Test System: AMES SALMONELLA TYPHIMURIUM, Strain/Indicator: TA98(1,8-DNP6), Metabolic Activation: RAT, LIVER, S-9, PHENOBARBITAL AND 5,6-BENZOFLAVONE, Method: PREINCUBATION); “active; positive” (Test System: AMES SALMONELLA TYPHIMURIUM, Strain/Indicator: TA98(NR), Metabolic Activation: NONE, Method: PREINCUBATION); “active; positive” under setting [7]; “active; positive” (Test System: AMES SALMONELLA TYPHIMURIUM, Strain/Indicator: TA98, Metabolic Activation: RAT, LIVER, S-9, PHENOBARBITAL AND 5,6-BENZOFLAVONE, Method: PREINCUBATION); “active; positive” under setting [5]; “active; positive” (Test System: AMES SALMONELLA TYPHIMURIUM, Strain/Indicator: TA100, Metabolic Activation: RAT, LIVER, S-9, PHENOBARBITAL AND 5,6-BENZOFLAVONE, Method: PREINCUBATION). Moreover, the mutagenic call runs as follows: (Test System: CHINESE HAMSTER OVARY, Strain/Indicator: CHO (HGPRT)/6-THIOGUANINE, Metabolic Activation: NONE, Method: STANDARD PLATE) “active; positive”; (Test System: CHINESE HAMSTER OVARY, Strain/Indicator: CHO (HGPRT)/6-THIOGUANINE, Metabolic Activation: RAT, LIVER, S-9, AROCLOR 1254, Method: STANDARD PLATE) “active; positive”; (Test System: UDS RODENT HEPATOCYTES, Strain/Indicator: THY INCORP, Metabolic Activation: NONE, Method: AUTORADIOGRAPHY) “active; positive”.

With `Cc1ccc(OS(=O)(=O)c2cccc3cccnc23)c([N+](=O)[O-])c1`, the mutagenic call reads like this: under setting [1], “active; positive”; under setting [2], “active; positive”; under setting [3], “active; positive”; under setting [4], “active; positive”; under setting [6], “inactive; negative”; (Test System: AMES SALMONELLA TYPHIMURIUM, Strain/Indicator: TA1535, Metabolic Activation: RAT, LIVER, S-9, AROCLOR 1254, Method: STANDARD PLATE) “inactive; negative”. Moreover, the mutagenic call by setting is: (Test System: AMES SALMONELLA TYPHIMURIUM, Strain/Indicator: TA1537, Metabolic Activation: NONE, Method: STANDARD PLATE) “active; positive”; (Test System: AMES SALMONELLA TYPHIMURIUM, Strain/Indicator: TA1537, Metabolic Activation: RAT, LIVER, S-9, AROCLOR 1254, Method: STANDARD PLATE) “active; positive”.
